Measurements reported in publication PMC7956476, “Quinoline Functionalized Schiff Base Silver (I) Complexes: Interactions with Biomolecules and In Vitro Cytotoxicity, Antioxidant and Antimicrobial Activities” (Molecules, 2021).

Experiments:
[1] = test system: Escherichia coli ATCC 25922; assay: Minimum inhibitory concentration (MIC), spotting on Müeller–Hinton agar; type: cell-based; details: Gram − Ve, E. coli, 37 °C, 18 h
Experimental: (§1) Sterilized Nutrient agar medium was first prepared by dissolving 38 g of Müeller–Hinton agar (MHA) (Biolab, Midrand, Africa) in distilled water (1 L). […] The cooled Agar medium was poured in Petri dishes while ensuring a uniform 4 mm depth of the medium and cooling further to ambient temperature.
(§2) These bacteria were inoculated in a sterilized Nutrient Broth (NB) (Biolab, Midrand, Africa) through streak plate technique and incubated at 37 °C for 18 h. The nutrient broth was sterilized by dissolving 1.3 g in distilled water (100 mL). Ca. 10 mL of the nutrient broth was transferred into a cotton wool-plugged test tubes and wrapped with an aluminium foil. […] Following this was the isolation of a single colony of the bacteria and inoculated into a 10 mL sterile NB which was then incubated in a shaking incubator at 37 °C for 18 h. Each of the bacteria strain concentrations was adjusted with sterile distilled water to get a final concentration of 1.5 × 10^8 cfu/mL, i.e., 0.5 Mc Farland’s Standard using a densitometer (Mc Farland Latvia). The bacteria were lawn inoculated on the set MHA Petri dishes using a sterile cotton swab. Screening of L1–L5 and Q1–Q15 for antibacterial activity was first carried out by spotting 5 µL of their solution (prepared from the dissolution of 1000 µg of the L1–L5 and Q1–Q15 in 1 mL dimethyl sulfoxide (DMSO)) on an MHA petri dish and incubated at 37 °C for 18 h. The antibacterial activity was determined by looking out for a clear zone at the spotting point.

[2] = test system: Pseudomonas aeruginosa ATCC 27853; assay: as above; type: cell-based; details: Gram − Ve, P. aeruginosa, 37 °C; for Minimum inhibitory concentration, PA: 18 h; for MIC: Pseudomonas aeruginosa, ATCC27853, 18 h, read-out: Minimum inhibitory concentration, PA
Experimental: as §1, §2

[3] = test system: Salmonella typhimurium ATCC 14026; assay: as above; type: cell-based; details: Gram − Ve, S. typhi, 37 °C, 18 h; for MIC: Salmonella enterica, read-out: Minimum inhibitory concentration, ST
Experimental: as §1, §2

[4] = test system: Staphylococcus aureus ATCC 700699 (methicillin-resistant); assay: as above; type: cell-based; details: Gram + Ve, methicillin-resistant S. aureus, 37 °C, 18 h
Experimental: as §1, §2

[5] = Ferric reducing antioxidant power (FRAP) assay; type: biochemical; details: done in triplicate
Excerpt: Antioxidants are important in protecting the human body against damage by reactive oxygen species (ROS). Accumulation of ROS in the cells may lead to damage of the DNA, RNA, and proteins which subsequently leads to several physiological disorders such as cardiovascular disease, diabetes, rheumatism, atherosclerosis, cancer, aging and cell death. […] The free radical scavenging ability of all ligands and complexes in this study were investigated using ferric reducing antioxidant power (FRAP). In antioxidant studies, FRAP assay is often preferred because it is simple, fast, economical, and direct in antioxidant measurement. FRAP assay is based on the electron-donating ability of an antioxidant compound. This involves the reduction of a colorless Fe^3+ tripyridyltriazine complex (Fe^3+ (TPTZ)) to an intense blue-colored Fe^2+ tripyridyltriazine complex (Fe^2+ (TPTZ)) by the electron-donating antioxidants at low pH [69]. The reducing power is to determine the reductive ability of the test compounds.
Antioxidant activity studies of L1–L5 and Q1–Q15 were done using ferric reducing antioxidant power (FRAP) assay. The ferric reducing antioxidant power assay is often used to evaluate the ability of an antioxidant to donate an electron. […] The resulting mixture was incubated at 50 °C for 20 min, and 2.5 mL of 10% trichloroacetic acid was added to acidify the mixture. After that, 1 mL of the acidified mixture was added to 1 mL of distilled water and 0.5 mL of 0.1% FeCl3. The absorbance of the resulting solution was then measured at 700 nm. The antioxidant power of the compounds was expressed as a percentage of ferric reducing antioxidant power Ascorbic acid equivalent, as shown in Equation (4). (4) % FRAP =Absorbance of Absorbance of Sample/Absorbance of Ascorbic Acid ×100

[6] = test system: calf thymus DNA (CT-DNA); assay: CT-DNA electronic absorption titration (Wolfe–Shimer); type: binding; details: for CT-DNA-Cmp. Kb (M^−1) × 10^5: intrinsic binding constant, absorption titration, PBS pH 7.2
Experimental: The interaction of the L1–L5 and complexes Q1–Q15 with calf thymus-DNA was carried out in a Phosphate buffer saline solution pH 7.2 stored at 4 °C. The DNA stock solution was prepared by dissolving CT-DNA sodium salt in Phosphate buffer saline solution with continuous stirring overnight. It was filtered and stored at 4 °C and used within four days. […] A fixed amount of the L1–L5 and complexes Q1–Q15 (50 µM) were prepared by dissolving an appropriate amount in DMSO. […] Therefore, in all the experimental of the interaction of L1–L5 and complexes Q1–Q15 with biomolecules, the final concentration of DMSO in the incubation mixture was ~2% (v/v).
The binding modes of L1–L5 and complexes Q1–Q15 to CT-DNA were characterized through electronic absorption titration by varying concentrations of CT-DNA (0–30 µM) in phosphate buffer saline solution against fixed concentrations (20 µM) of L1–L5 and complexes Q1–Q15. […] The absorbance of CT-DNA is cancelled by adding equivalent amounts of CT-DNA to both the tested compounds and the reference solutions.

[7] = test system: CT-DNA-EB adduct; assay: Fluorescence competitive displacement of ethidium bromide from CT-DNA; type: binding, calf; details: for CT-DNA-EB-Complex Ksv (M^−1) × 10^4: Stern–Volmer quenching constant, EB displacement, 25 °C; for CT-DNA-EB-Complex Kq (M^−1S^−1) × 10^12: bimolecular quenching constant, Ksv = Kqτo, τo 10^−8 s; for CT-DNA-EB-Complex Kbin (M^−1) × 10^5: binding constant from double-logarithmic plot
Excerpt: The Stern–Volmer plot approach was used based on the fact that the Stern–Volmer plots for Q1–Q15 (Figure 5c), were linear an indication of only one mechanism for the quenching fluorescence, i.e., either dynamic or static. […] (1) Ksv=Kqτo where Ksv, Kq, and τo represent Stern–Volmer quenching constant, bimolecular quenching constant, and an average lifetime of the fluorophore in the absence of the quencher, respectively. τₒ normally takes about 10^−8 s in biomacromolecules.
The double-logarithmic Equation (2) was used in determining the binding constant of complexes Q1–Q15 and CT-DNA. (2) logFo−F/F=logKb+n logQ
A competitive displacement study was carried out using fluorescence spectroscopy between CT-DNA pre-treated with ethidium bromide (EB) and complexes Q1–Q15 to establish the complexes′ actual mode of binding to CT-DNA. […] The competitive luminescence displacement assay was done using a modified method. Pre-treated 15 µM solution of EB with 15 µM of CT-DNA was prepared in a phosphate buffer of pH 7.2 and left to equilibrate for 30 min. Keeping CT-DNA-EB concentrations constant, different concentrations (0–20 µM) of the complexes were added at 8 min incubation interval at room temperature. The fluorescence quenching ability of CT-DNA bound EB by the complexes were recorded in the wavelength range of 530–700 nm with an excitation wavelength at 525 nm at 25 °C. (6) Fo/F=1+KSVQ=1+KqτoQ
A Stern–Volmer (Equation (6)) was used to evaluate the CT-DNA-EB fluorescence quenching of the complexes. Where Fo and F denote the relative fluorescence intensities of CT-DNA in the absence and presence of the quencher, Ksv, Stern–Volmer quenching constant, [Q], quencher concentration, Kq, bimolecular quenching constant and τo, average lifetime of the fluorophore in the absence of the quencher which is typically equal to 10^−8 s in biomacromolecules.

[8] = target: bovine serum albumin (BSA) (Bos taurus, UniProt P02769); assay: Albumin binding by absorption spectroscopy titration
Chain of bovine serum albumin (BSA) (P02769 25-607): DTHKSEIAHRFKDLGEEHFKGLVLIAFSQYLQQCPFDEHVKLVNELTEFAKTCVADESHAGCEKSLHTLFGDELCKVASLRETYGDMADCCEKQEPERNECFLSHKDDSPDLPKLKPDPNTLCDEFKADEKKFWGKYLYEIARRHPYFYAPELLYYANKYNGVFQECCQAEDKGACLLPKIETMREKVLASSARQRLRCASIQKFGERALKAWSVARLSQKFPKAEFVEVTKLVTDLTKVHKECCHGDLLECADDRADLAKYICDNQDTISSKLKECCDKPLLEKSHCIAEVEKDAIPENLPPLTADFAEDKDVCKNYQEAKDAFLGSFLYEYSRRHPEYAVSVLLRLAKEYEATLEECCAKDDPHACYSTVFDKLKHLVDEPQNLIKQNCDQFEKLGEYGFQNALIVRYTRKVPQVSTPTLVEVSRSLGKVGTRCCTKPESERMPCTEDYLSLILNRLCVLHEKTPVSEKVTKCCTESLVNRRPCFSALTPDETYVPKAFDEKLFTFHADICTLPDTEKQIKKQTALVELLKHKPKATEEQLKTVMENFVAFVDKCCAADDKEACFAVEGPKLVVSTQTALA
Excerpt: Bovine serum albumin (BSA) was used as the protein standard in this study because of its close resemblance to human serum albumin (HSA), its stability, high solubility, neutrality in many biochemical reactions and low cost. In protein binding study, absorption spectroscopy titration is a known method used in studying the conformational changes in proteins, and this protein is characterized by an intense absorbance peak at 280 nm depicting the microenvironment around tyrosine and tryptophan residue polarity.
The absorbance assay of albumin binding is a very simple method used in identifying the conformational changes in protein. […] A stock solution of bovine serum albumin (BSA) was prepared by dissolving an appropriate amount of BSA in phosphate buffer saline solution (pH 7.2) under constant stirring for 1 h at 25 °C. It was kept at 4 °C and used within four days. […] The stock solution of the complex was prepared by dissolving 1 mmol of the complexes in DMSO. The absorption titration assay was done by adding different concentrations (0–10 µM) of the complexes to a constant BSA concentration (6 µM). The sample solution was incubated after each addition of the concentrations for 10 min at 25 °C before recording the absorbance at λmax 280 nm.

SMILES	Minimum inhibitory concentration, EC [1]	Minimum inhibitory concentration, PA [2]	Minimum inhibitory concentration, ST [3]	Minimum inhibitory concentration, MRSA [4]	Antioxidant (IC50 mg/mL) FRAP [5]	CT-DNA-Cmp. Kb (M^−1) × 10^5 [6]	CT-DNA-EB-Complex Ksv (M^−1) × 10^4 [7]	CT-DNA-EB-Complex Kq (M^−1S^−1) × 10^12 [7]	CT-DNA-EB-Complex Kbin (M^−1) × 10^5 [7]	Protein-Complex Kb (M^−1) × 10^4 [8]	MIC [2]	MIC ([4]; Staphylococcus aureus, ATCC 700699 / MRSA)	MIC [3]	MIC ([1]; Escherichia coli, ATCC25922, read-out: Minimum inhibitory concentration, EC)	hypochromic shift in the absorption bands on addition of CT-DNA ([6]; absorption titration with CT-DNA)
Cc1ccc(N=Cc2ccc3ccccc3n2)cc1.Cc1ccc(N=Cc2ccc3ccccc3n2)cc1.O=[N+]([O-])[O-].[Ag+] [Complex Q4, [Ag(L4)2]NO3]	12.5 µg/mL	12.5 µg/mL	50 µg/mL	50 µg/mL	2.14 ± 0.0035 mg/mL	4.00 (M^−1) × 10^5	3.50 (M^−1) × 10^4	3.50 (M^−1S^−1) × 10^12	2.11 (M^−1) × 10^5	10.3 (M^−1) × 10^4					
C(=NCc1cccs1)c1ccc2ccccc2n1.C(=NCc1cccs1)c1ccc2ccccc2n1.O=S(=O)([O-])C(F)(F)F.[Ag+] [Complex Q15, [Ag(L5)2]CF3SO3]	25 µg/mL	~0.8 µg/mL	1000 µg/mL	100 µg/mL	3.35 ± 0.012 mg/mL	4.00 (M^−1) × 10^5	2.48 (M^−1) × 10^4	2.48 (M^−1S^−1) × 10^12	5.29 (M^−1) × 10^5	13.1 (M^−1) × 10^4					
O=S(=O)([O-])C(F)(F)F.[Ag+].c1ccc2nc(-c3nc4ccccc4s3)ccc2c1.c1ccc2nc(-c3nc4ccccc4s3)ccc2c1 [Complex Q12, [Ag(L2)2]CF3SO3]	25 µg/mL	12.5 µg/mL	50 µg/mL	50 µg/mL	1.86 ± 0.024 mg/mL	4.50 (M^−1) × 10^5	3.14 (M^−1) × 10^4	3.14 (M^−1S^−1) × 10^12	2.12 (M^−1) × 10^5	20.7 (M^−1) × 10^4					
Clc1ccc(/N=C/c2ccc3ccccc3n2)cc1 [Complex L3, (E)-N-(4-chlorophenyl)-1-(quinolin-2-yl)methanimine]		100 µg/mL			20.35 ± 0.0047 mg/mL						50 to 100 µg/mL	1000 µg/mL			
O=C1O[C@H]([C@@H](O)CO)C(O)=C1O [Ascorbic Acid, Ascorbic acid, reference compound]					2.68 ± 0.11 mg/mL										
C(=N\Cc1cccs1)/c1ccc2ccccc2n1 [Complex L5, (E)-1-(quinolin-2-yl)-N-(thiophen-2-ylmethyl)methanimine]					3.79 ± 0.0052 mg/mL	1.17 (M^−1) × 10^5					100 µg/mL		50 µg/mL		
Cc1ccc(/N=C/c2ccc3ccccc3n2)cc1 [Complex L4, (E)-1-(quinolin-2-yl)-N-(p-tolyl)methanimine]					4.50 ± 0.0053 mg/mL	1.60 (M^−1) × 10^5							1000 µg/mL	1000 µg/mL	
c1ccc2nc(-c3nc4ccccc4s3)ccc2c1 [Complex L2, 2-(quinolin-2-yl)benzo[d]thiazole]		100 µg/mL			2.29 ± 0.0041 mg/mL	1.50 (M^−1) × 10^5					50 to 100 µg/mL				
O=S(=O)([O-])C(F)(F)F.[Ag+] [AgCF3SO3, silver trifluoromethanesulfonate, reference compound]	50 µg/mL	1000 µg/mL	12.5 µg/mL	1000 µg/mL	0.88 ± 0.054 mg/mL	2.00 (M^−1) × 10^5	3.01 (M^−1) × 10^4	3.01 (M^−1S^−1) × 10^12	1.60 (M^−1) × 10^5	4.46 (M^−1) × 10^4					23.64–50.86%
